# System: M. tuberculosis CDC1551 wild-type, control and MtMetAP1a/MtMetAP1c knock-in strains
# Type: cell-based
compound,measurement,value
"O=C1C(Cl)=C(Cl)C(=O)c2ccccc21 [Compound 4, 2,3-dichloro-1,4-naphthoquinone]",growth of MtMetAP1a and MtMetAP1c knock-in strains,gained resistance
same,growth of wild-type and control M. tuberculosis strains,inhibited

# Source: patent US10472315B2, “Inhibitors of methionine aminopeptidases and methods of treating disorders” (THE JOHNS HOPKINS UNIVERSITY, priority 2009, dated 2019)
